Substitutions are numbered along the chain they refer to.
Tests used:
COMT = target: T1, COMT (Homo sapiens, UniProt P21964); test: Assay of COMT activity: methylation of catechol estrogens by purified recombinant His-COMT; assay type: biochemical; settings: for pattern of the rates of methylation versus substrate concentration: substrate of COMT, FIG. 9; for formation as product of COMT methylation of 4-OHE2 / 4-OHE1: GC/MS detection of product
T1 construct: made in house; host or cells: Escherichia coli DH5alphaF'Iq
T1 sequence (P21964 1-221 isoform P21964-2): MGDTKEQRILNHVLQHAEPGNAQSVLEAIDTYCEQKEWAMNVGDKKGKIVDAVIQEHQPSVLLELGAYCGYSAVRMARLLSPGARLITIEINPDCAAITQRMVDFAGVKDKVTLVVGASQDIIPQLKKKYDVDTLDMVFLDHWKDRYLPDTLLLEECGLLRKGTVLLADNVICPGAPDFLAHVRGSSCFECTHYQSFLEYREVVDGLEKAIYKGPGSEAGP
Description: Assay of COMT Activity. Purified recombinant His-COMT (300 pmol) was reconstituted in 0.5 ml of 100 mM KPO4, pH 7.4, containing 5 mM MgCl2, 10 mM (β-mercaptoethanol, and 200 μM SAM. Reactions were initiated by adding varying concentrations of each individual catechol estrogen (2, 3, 6, 9, 12, 15, 20, 40, 60, 80, and 100 μM). Blanks contained all compounds except SAM. Reactions proceeded for 10 min at 37° C. with gentle shaking and then were terminated by addition of 2 ml CH2Cl2. To determine COMT activity in breast cancer cells, ZR-75 and MCF-7 cells were harvested at confluency and homogenized in 100 mM KP04, pH 7.4, 5 mM MgCl2, 10 mM β-mercaptoethanol. Following ultracentrifugation of the cell homogenate (110,000 g, 30 min, 4° C.), the supernatant cytosol was divided into aliquots for ICELISA, protein determination (BCA assay; Pierce, Rockford, Ill.), and COMT assay. The latter was carried out in the presence of 200 μM SAM and 100 μM catechol estrogen for 20 min at 37° C. and then terminated by addition of CH2Cl2. The concentration of endogenous catechol and methoxy estrogens was below the limit of detection by gas chromatography/mass spectrometry.
Extraction and Gas Chromatography/Mass Spectrometry Analysis of Catechol Estrogens. A deuterated internal standard (100 μl of 8 mg/liter E2-d4 in methanol) was added and all estrogens extracted into the CH2Cl2 by vortex mixing for 30 s. 1.5 ml of the CH2Cl2 fraction was evaporated to dryness under air and volatile TMS derivatives prepared by heating the residue with 100 μl of 50% NO-bis(trimethylsilyl)trifluoroacetamide/1% trimethyl chlorosilane in acetonitrile at 56° C. for 30 min. The TMS derivatives of the estrogen metabolites were separated by gas chromatography (H—P 5890, Hewlett-Packard, Wilmington, Del.) on a 5% phenyl methyl silicone stationary phase fused silica capillary column (30 m×0.2 mm×0.5 μm film, HP5; Hewlett-Packard). Helium carrier gas was used at a flow of 1 ml/min. The injector was operated at 250° C., with 2 μl injected in the splitless mode, with a purge (60 ml/min helium) time of 0.6 min. The oven temperature was held at 180° C. for 0.5 min, then raised at 6° C./min to 250° C. where it was held for 17 min, then raised to 300° C. at 8° C./min to give a total run time of 35.42 min. This program permitted adequate separation of a wide range of estrogen metabolites. Retention times (in min) for the TMS derivatives were E1 20.13, E2 and E2-d4 21.89, 4-MeOE1 23.52, 2-MeO-3-MeOE1 (underivatized) 23.75, 2-OH-3-MeOE1 24.87, 2-MeOE1 25.2, 4-MeOE2 25.78, 2-OHE1 and 2-MeO-3-MeOE2 26.19, 2-OH-3-MeOE2 26.9, 2-MeOE2 27.18, 4-OHE1 27.27, 6a-OHE2 27.29, 2-OHE2 27.44, 4-OHE2 28.06, E3 28.38. The E1 mass spectrometer (H—P 5970) was operated in the selected ion monitoring mode from 18 to 30 min. Ions monitored were TMS-E1 342, 257, 343; TMS2-E2-d4 420, 421, 287; TMS2-E2 416, 417, 285; TMS-4-MeOE1, TMS-2-OH-3-MeOE1, TMS-2-MeOE1 and TMS-3-MeO-4-OHE1 372, 373, 342; 2-MeO-3-MeOE1 314, 315, 229; TMS2-4-MeOE2, TMS2-2-OH-3-MeOE2, TMS2-2-MeOE2 and TMS2-3-MeO-4-OHE2 446, 447, 315; TMS2-2-OHE1 430, 431, 432; TMS-2-MeO-3-MeOE2 388, 389, 257; TMS2-4-OHE1 430, 431, 345; TMS2-6α-OHE2 414, 283, 309; TMS3-2-OHE2 and TMS3-4-OHE2 504, 505, 373; TMS3-E3 504, 505, 311 (FIG. 7). The instrument was calibrated by simultaneous preparation of an 11-point calibration over the range 0-22 nmol/tube of each compound. Sensitivity was determined to be between 0.02 and 0.04 nmol/tube (400-800 finol on column) for the various compounds. […] Absolute extraction efficiency for E2,2-OH-E2 and 4-OH-E2 at 3.5 nmol/tube was 119, 96, and 107% assessed by comparison to injections of spiked solvent samples onto the gas chromatograph. Internal standard added prior to extraction compensated for deviation from 100% recovery for all investigated compounds.
Statistical Analysis. […]

renal DNA = settings: hamster, in vivo; cited from earlier work
CYP1B1 = test: Assay of CYP1B1 E2 hydroxylation activity (purified recombinant enzyme, GC/MS of products); assay type: biochemical, human; settings: E2 16a-hydroxylation
Description: Assay of CYP1B1 E2 Hydroxylation Activity. […] An NADPH-generating system consisting of 5 mM glucose 6-phosphate and 0.5 U of glucose-6-phosphate dehydrogenase/ml was added and reactions initiated by adding NADP+ to a final concentration of 0.5 mM. Reactions proceeded for 10 min at 37° C. with gentle shaking and then were terminated by addition of 2 ml CH2Cl2. Extraction and Gas Chromatography/Mass Spectrometry Analysis of E2 and Metabolites. […] Hewlett-Packard). Helium carrier gas was used at a flow of 1 ml/min. The injector was operated at 250° C., with […] injected in the splitless mode, with a purge (60 ml/min helium) time of 0.6 min. The oven temperature was held at 180° C. for 0.5 min, then raised at 6° C./min to 250° C. where it was held for 17 min, then raised to 300° C. at 8° C./min to give a total run time of 35.42 min. […] The E1 mass spectrometer (H-P 5970) was operated in the selected ion monitoring mode from 18 to 34 min. […] TMS2-E2 416, 285, 326; […]2 504, 373, 325; TMS3-16_-OH-E2 345, 311, 504. […] Internal standard added prior to extraction compensated for deviation from 100% recovery. Statistical Analysis. Kinetic parameters (Km and kcat) were determined by nonlinear regression analysis using the computer program GraphPad PRISM (San Diego, Calif.).

C[C@]12CC[C@@H]3c4cc(O)c(O)cc4CC[C@H]3[C@@H]1CCC2=O [Variant 2-OHE1]
pattern of the rates of methylation versus substrate concentration (COMT): typical hyperbolic patterns

C[C@]12CC[C@@H]3c4cc(O)c(O)cc4CC[C@H]3[C@@H]1CC[C@@H]2O [Variant 2-OHE2]
levels of the oxidized base 8-hydroxy-deoxyguanosine in renal DNA (renal DNA): did not cause oxidative DNA damage
pattern of the rates of methylation versus substrate concentration (COMT): typical hyperbolic patterns

COc1ccc2c(c1O)CC[C@@H]1[C@@H]2CC[C@]2(C)C(=O)CC[C@@H]12 [Variant 3-MeO-4-OHE1]
formation as product of COMT methylation of 4-OHE2 / 4-OHE1 (COMT): not observed

COc1ccc2c(c1O)CC[C@@H]1[C@@H]2CC[C@]2(C)[C@@H](O)CC[C@@H]12 [Variant 3-MeO-4-OHE2]
formation as product of COMT methylation of 4-OHE2 / 4-OHE1 (COMT): not observed

C[C@]12CC[C@@H]3c4ccc(O)c(O)c4CC[C@H]3[C@@H]1CCC2=O [Variant 4-OHE1]
levels of the oxidized base 8-hydroxy-deoxyguanosine in renal DNA (renal DNA): significantly increased
pattern of the rates of methylation versus substrate concentration (COMT): sigmoid curve pattern

C[C@]12CC[C@@H]3c4ccc(O)c(O)c4CC[C@H]3[C@@H]1CC[C@@H]2O [Variant 4-OHE2]
levels of the oxidized base 8-hydroxy-deoxyguanosine in renal DNA (renal DNA): significantly increased
pattern of the rates of methylation versus substrate concentration (COMT): sigmoid curve pattern

B1: Wild type: purified recombinant His-tagged wild type CYP1B1: 48Arg, 119Ala, 432Val, 453Asn (protein)
chain: HHHHHHLLSVLATVHVGQRLLRQRRRQLRSAPPGPFAWPLIGNAAAVGQAAHLSFARLARRYGDVFQIRLGSCPIVVLNGERAIHQALVQQGSAFADRPAFASFRVVSGGRSMAFGHYSEHWKVQRRAAHSMMRNFFTRQPRSRQVLEGHVLSEARELVALLVRGSADGAFLDPRPLTVVAVANVMSAVCFGCRYSHDDPEFRELLSHNEEFGRTVGAGSLVDVMPWLQYFPNPVRTVFREFEQLNRNFSNFILDKFLRHCESLRPGAAPRDMMDAFILSAEKKAAGDSHGGGARLDLENVPATITDIFGASQDTLSTALQWLLLLFTRYPDVQTRVQAELDQVVGRDRLPCMGDQPNLPYVLAFLYEAMRFSSFVPVTIPHATTANTSVLGYHIPKDTVVFVNQWSVNHDPLKWPNPENFDPARFLDKDGLINKDLTSRVMIFSVGKRRCIGEELSKMQLFLFISILAHQCDFRANPNEPAKMNFSYGLTIKPKSFKVNVTLRESMELLDSAVQNLQAKETCQ
16a-OH-Estradiol kcat (CYP1B1): 0.005 ± 0.00033 s⁻¹
16a-OH-Estradiol kcat (CYP1B1; listed as Wild type CYP1B1): 0.005 ± 0.00033 s⁻¹
16a-OH-Estradiol kcat (CYP1B1; listed as wild type CYP1B1): 0.005 ± 0.00033 s⁻¹

B2: Variant 4: recombinant CYP1B1 variant: 48Arg, 119Ala, 432Val, 453Ser (protein, UniProt Q16678 1-543, looked up, variant N453S)
Cytochrome P450 1B1: MGTSLSPNDPWPLNPLSIQQTTLLLLLSVLATVHVGQRLLRQRRRQLRSAPPGPFAWPLIGNAAAVGQAAHLSFARLARRYGDVFQIRLGSCPIVVLNGERAIHQALVQQGSAFADRPAFASFRVVSGGRSMAFGHYSEHWKVQRRAAHSMMRNFFTRQPRSRQVLEGHVLSEARELVALLVRGSADGAFLDPRPLTVVAVANVMSAVCFGCRYSHDDPEFRELLSHNEEFGRTVGAGSLVDVMPWLQYFPNPVRTVFREFEQLNRNFSNFILDKFLRHCESLRPGAAPRDMMDAFILSAEKKAAGDSHGGGARLDLENVPATITDIFGASQDTLSTALQWLLLLFTRYPDVQTRVQAELDQVVGRDRLPCMGDQPNLPYVLAFLYEAMRFSSFVPVTIPHATTANTSVLGYHIPKDTVVFVNQWSVNHDPLKWPNPENFDPARFLDKDGLISKDLTSRVMIFSVGKRRCIGEELSKMQLFLFISILAHQCDFRANPNEPAKMNFSYGLTIKPKSFKVNVTLRESMELLDSAVQNLQAKETCQ
16a-OH-Estradiol kcat (CYP1B1): 0.0065 ± 0.00033 s⁻¹

B3: Variant 2: recombinant CYP1B1 variant: 48Arg, 119Ser, 432Val, 453Asn (protein, UniProt Q16678 1-543, looked up, variant A119S)
Cytochrome P450 1B1: B2 Cytochrome P450 1B1 with A119S, S453N
16a-OH-Estradiol kcat (CYP1B1): 0.00567 ± 0.00033 s⁻¹

B4: Variant 1: recombinant CYP1B1 variant: 48Gly, 119Ala, 432Val, 453Asn (protein, UniProt Q16678 1-543, looked up, variant R48G)
Cytochrome P450 1B1: B2 Cytochrome P450 1B1 with R48G, S453N
16a-OH-Estradiol kcat (CYP1B1): 0.00933 ± 0.00067 s⁻¹

From patent publication US20050255504A1, “Method of detecting an increased susceptibility to breast cancer” (priority 2004, published 2005)
